Experimental data from US20210093714A1, “Combination and method for inhibiting the cancer cells” (NATIONAL TAIWAN UNIVERSITY, priority 2013, published 2021).
Residues, ends and D or L forms follow the SMILES beside them. *: point of attachment. Cbz = O=C(OCc1ccccc1)*

How the values were obtained:
[1] = test system: EGFR; assay: Western blot of CCN2-induced EGFR degradation; type: cell-based, human; conditions: CL1-5 with CCN2
Protocol: (§1) Proteins ([…]) were separated by SDS-PAGE and transferred to a polyvinylidene difluoride membrane (Immobilon-P membrane; Millipore) by electrotransfer. The blot was blocked in a solution of 5% skim milk and 0.1% Tween 20 in PBS. Thereafter, membrane-bound proteins were probed with the following primary antibodies: CCN2, DAPK, phosphorylated ERK, ERK-1, phosphorylated Akt, Akt, TrkA, phosphorylated-Src, Src, b-actin, a-tubulin (Santa Cruz Biotechnology), p-EGFR, and EGFR (Cell Signaling Technology, Danvers, MA, USA). The membrane was washed and then incubated with HRP-conjugated secondary antibodies for 30 min. Enhanced chemiluminescence reagents (Amersham Pharmacia Biotech, Piscataway, N.J., USA) were employed to depict the protein bands on membranes. The light was captured on Kodak X-Omat Blue autoradiography film (PerkinElmer Life Sciences, Boston, Mass., USA).
This embodiment focuses on whether CCN2 interacts with EGFR. At first, the effect of MG132 and CCN2 on the degradation of EGFR in the lung adenocarcinoma cell line, CL1-5, and the effect of cycloheximide and CCN2 on the degradation of EGFR in the lung adenocarcinoma cell line, CL1-5,were observed by western blot analysis, the results shown in FIGS. 4A and 4B. […] On the other hand, cycloheximide can gradually promote CCN2-induced EGFR degradation and attenuated the protein signal intensity(Fold) of EGFR (attenuated from 0.74 to 0.39)(as shown in FIG. 4B) with increasing time (0 hours, 12 hours, 24 hours, 48 hours). Thus, CCN2 can destabilize EGFR and enhance the degradation of EGFR.

[2] = test system: EGFR; assay: Immunoprecipitation and in vitro binding assay of CCN2 and EGFR; set-up: species or system human; conditions: A549; rEGF 20 ng/mL for 24 h; rCCN2 100 ng/mL; FIG. 2C
Protocol: CCN2 transfectants were seeded overnight and incubated in serum-free media for 24 h. For immunoprecipitations, cells were lysed in an RIPA buffer (150 mM NaCl, 50 mM Tris-base, 5 mM EDTA, 1% NP-40, and 0.25% deoxycholate; pH 7.4). Protein concentrations were determined using the BCA protein assay kit (Pierce, Rockford, Ill., USA). Lysate was incubated for 2 h at 4[…] with gentle rotation with rabbit polyclonal antibodies for human EGFR, CCN2, or Src immobilized onto protein A—sepharose beads (Santa Cruz Biotechnology, Santa Cruz, Calif., USA). Beads were washed twice with an IP buffer (137 mM NaCl, 2.7 mM KCl, 1 mM MgCl2, 1 mM CaCl2, 1% NP-40, 10% glycerol, 1 mg/ml bovine serum albumin, and 20 mM Tris; pH 8.0), boiled in a sodium dodecyl sulfate-polyacrylamide gel electrophoresis (SDS-PAGE) sample buffer, and centrifuged (12000×g, 4° C. for 15 min).
The recombinant proteins rCCN2 (BioVendor Com. Heidelberg, Germany), rEGFR, and rEGF (R&D Techne Corporation) ([…]) were added in binding buffer (50 mM sodium phosphate, pH 7.5, 500 mM NaCl, and I% Nonidet P-40) and incubated with gentle rotation at 4° C. for 2 h. Thereafter, crosslinks were reversed by boiling in an SDS-PAGE sample buffer (containing 0.1M dithiothreitol (DTT)) before loading on SDS-PAGE gels for immunoblotting analysis. […]

[3] = test system: DAPK; assay: Western blot of DAPK expression; type: cell-based, human; conditions: CL1-5; PD98059 0, 10, 20 μM; FIG. 6E
Protocol: as §1
This embodiment focuses on the downstream signaling in CCN2-induced anoikis. At first, the effect of DAPK which can up-regulate CCN2 played on CCN2 induced anoikis and metastasis inhibition of lung adenocarcinoma cell lineswas observed by RT-PCR, dual luciferase reporter assay and western blot analysis, the results shown in FIGS. 6A to 6C. […] In addition, in the lung adenocarcinoma cell line, CL1-0/siCCN2, DAPK expression is suppressed, and DAPK expression also be suppressed with increasing dose (0 μg, 1μg, 3μg), (as shown on the top right in the FIG. 6C). Therefore, CCN2 induced DAPK expression in time- and dose-dependent manners.

[4] = test system: ERK; assay: Western blot of ERK phosphorylation; type: cell-based, human; conditions: CL1-5; PD98059 0, 10, 20 μM; FIG. 6E
Protocol: as §1
This embodiment focuses on the effect of CCN2 on the EGFR-induced signaling pathways. At first, the effect of exogenous CCN2(rCCN2) on the MAPK/AKT signaling pathways in the lung adenocarcinoma cell lines, CL1-5, A549 and CL1-0/siCCN2 was observed by western blot analysis, the results shown in FIG. 3A.

[5] = test system: CCN2 transfected lung adenocarcinoma cell line, CL1-5; assay: MTT Assay, chemotherapy drugs on CCN2 transfected CL1-5; type: cell-based, human; conditions: suspended CCN2 transfected CL1-5; increasing dose 0 to 10 μM; 24 hrs; FIG. 8A
Protocol: First, the effect of CCN2 on the suspended lung adenocarcinoma cell line, CL1-5, treated with chemotherapy was observed by MTT Assay, the results shown in FIG. 8A (Cells were treated for 24 hrs, *P<0.05, **P<0.01). […] In this embodiment, paclitaxel treatment with a concentration between 1 μM and 10 μM is perferred, and 10 μM is most preferable; doxorubicin treatment with a concentration between 0.5 μM and 10 μM is perferred, and 5 μM is most preferable.

[6] = molecular target: T1, EGFR (Homo sapiens, UniProt P00533); assay: FACS and western blot, CCN2 domain responsible for EGFR binding; type: cell-based; conditions: suspended A549; rCT 100 ng/mL; FIG. 2G
T1 construct: endogenous in cells; host or cells: CL1-5 and A549 human lung adenocarcinoma cell lines
Protocol: After washing, cells were stained with an FITC-labelled goat anti-rabbit secondary antibody (Santa Cruz Biotechnology) for 30 min in the dark. Analysis was then conducted with an FACS Calibur cytometer (Collaborative Biomedical, BD Biosciences).

**Q.** With `C[C@@H]1C[C@@H]([C@H](O)CC2CC(=O)NC(=O)C2)C(=O)[C@@H](C)C1` [cycloheximide] as the molecule, how does the “protein signal intensity(Fold) of EGFR” value ([1]; cycloheximide, end of time course (48 hours), FIG. 4B) read?
**A.** 0.39 Fold

**Q.** And the “protein signal intensity(Fold) of EGFR” value ([1]; cycloheximide, start of time course (0 hours), FIG. 4B)?
**A.** 0.74 Fold

**Q.** Which “effect on physical association between CCN2 and EGFR” value [2] does the source give for “EGF: EGFR ligand, recombinant protein (R&D Techne Corporation) [reference compound]” here?
**A.** do not block the physically association between CCN2 and EGFR

**Q.** With `COc1cccc(-c2cc(=O)c3ccccc3o2)c1N` [PD98059, reference compound] as the molecule, how does the DAPK expression [3] read?
**A.** gradually increase the DAPK expression

**Q.** And the p-ERK [4]?
**A.** gradually inhibit p-ERK

**Q.** How did the cell apoptosis [5] turn out when `CC(=O)O[C@H]1C(=O)[C@@]2(C)[C@H]([C@H](OC(=O)c3ccccc3)[C@]3(O)C[C@H](OC(=O)[C@H](O)[C@@H](NC(=O)c4ccccc4)c4ccccc4)C(C)=C1C3(C)C)[C@]1(OC(C)=O)CO[C@@H]1C[C@@H]2O` [paclitaxel] was run?
**A.** increase cell apoptosis more significantly

**Q.** With `CC(C)C[C@@H](C=O)NC(=O)[C@H](CC(C)C)NC(=O)[C@H](CC(C)C)NC(=O)OCc1ccccc1` [MG132] (Cbz-Leu-Leu-Leu-aldehyde) as the molecule, how does the “protein signal intensity(Fold) of EGFR” value ([1]; MG132, end of time course (24 hours), FIG. 4A) read?
**A.** 1.41 Fold

**Q.** And the “protein signal intensity(Fold) of EGFR” value ([1]; MG132, start of time course (0 hours), FIG. 4A)?
**A.** 0.04 Fold

**Q.** With `COc1cccc2c1C(=O)c1c(O)c3c(c(O)c1C2=O)C[C@@](O)(C(=O)CO)C[C@@H]3O[C@H]1C[C@H](N)[C@H](O)[C@H](C)O1` [doxorubicin] as the molecule, how does the cell apoptosis [5] read?
**A.** increase cell apoptosis more significantly

B1: rCT: carboxyl-terminal cystine knot (CT) domain of CCN2, CCN2 functional fragment (protein)
chain: KGKKCIRTPKISKPIKFELSGCTSMKTYRAKFCGVCTDGRCCTPHRTTTLPVEFKCPDGEVMKKNMMFIKTCACHYNCPGDNDIFESLYYRKMYGDMA
**Q.** How did the “association of CT-domain of CCN2 with EGFR” value [6] turn out when B1 was run?
**A.** has association relationship with EGFR
